From EP1282414B1, “FELBAMATE DERIVED COMPOUNDS FOR TREATING NEUROPATHIC PAIN” (University of Virginia Patent Foundation, priority 2000, dated 2001)

What was measured:
[1] = test system: mice; test: Minimal neurotoxicity (TOX), rotorod test, mice i.p.; type: in vivo; details: for TOX, number of animals exhibiting toxic effects / total number of animals tested: mice i.p.
Source text: (§1) The fluoro derivatives synthesized were submitted to the National Institute of Neurological Disorders and Stroke (NINDS) for evaluation in a standard panel of assays. Two convulsant tests (MES and scMET), and a toxicity screen (rotorod in mice, positional sense and gait in rats) were employed for evaluating the compounds activity as neuroprotecting agents. These testing procedures are described in detail in Molecular and Cellular Targets for Anti-epileptic Drugs, eds. […] The felbamate derivatives were evaluated for anticonvulsant activity following intraperitoneal (i.p.) administration in mice and oral administration in rats. […]

[2] = as above; type: in vivo; details: in vivo, ip; mouse, I.P.
Source text: as §1

[3] = test system: MES-induced seizure spread; test: Maximal Electroshock Seizure (MES) test, mice i.p.; type: in vivo; details: for MES, number of animals protected / total number of animals tested: mice i.p.
Source text: (§2) The fluoro derivatives synthesized were submitted to the National Institute of Neurological Disorders and Stroke (NINDS) for evaluation in a standard panel of assays. Two convulsant tests (MES and scMET), and a toxicity screen (rotorod in mice, positional sense and gait in rats) were employed for evaluating the compounds activity as neuroprotecting agents. These testing procedures are described in detail in Molecular and Cellular Targets for Anti-epileptic Drugs, eds. G. Avanzini, G. Regesta, P. Tanganelli, M. Avoli, 1997, John Libbey & Company Ltd, pp 191-198. The felbamate derivatives were evaluated for anticonvulsant activity following intraperitoneal (i.p.) administration in mice and oral administration in rats.
The MES test is a model for generalized tonic-clonic seizures and is used to identify compounds which prevent seizure spread. The behavioral and electrographic seizures generated in this model are consistent with the human disorder. In the MES test, an electrical stimulus of 0.2 s in duration (50 mA in mice and 150 mA in rat at 60Hz) was delivered via corneal electrodes primed with an electrolyte solution containing an anesthetic agent. […] Rats were tested at time intervals between 0.25 and 4 hours following a standard oral dose of 30 mg/kg. Abolition of the hindlimb tonic extensor component indicates the test compound's ability to inhibit MES-induced seizure spread.
(§3) For the MES and scMET tests the data is presented in the form of the number of animals protected by the administered compound / total number of animals tested. […] Qualitative data was obtained for fluoro felbamate 12 (Tables 1 and 2A), fluoro monocarbamate felbamate 13 (Tables 1 and 2B), and fluorodioxo 16 (Tables 1 and 2C) and for cyclic felbamate 21 (Tables 5 and 6B) and cyclic monocarbamate 22 (Tables 5 and 6A). More extensive quantitative data was also obtained for fluoro felbamate 12 in mice (Table 3) and rats (Table 4).

[4] = Minimal neurotoxicity (TOX), positional sense and gait and stance tests, rats p.o.; type: in vivo; details: in vivo, po; rat
Source text: (§4) The fluoro derivatives synthesized were submitted to the National Institute of Neurological Disorders and Stroke (NINDS) for evaluation in a standard panel of assays. Two convulsant tests (MES and scMET), and a toxicity screen (rotorod in mice, positional sense and gait in rats) were employed for evaluating the compounds activity as neuroprotecting agents. These testing procedures are described in detail in Molecular and Cellular Targets for Anti-epileptic Drugs, eds. […] The felbamate derivatives were evaluated for anticonvulsant activity following intraperitoneal (i.p.) administration in mice and oral administration in rats.
(§5) Rats are examined for behavioral toxicity by the positional sense test and a gait and stance test. […] In the gait and stance test, neurotoxicity is indicated by a circular or zigzag gait, ataxia, abnormal spread of the legs, abnormal posture, tremor hyperactivity, lack of exploratory behavior, somnolence, stupor or catalepsy. […]

[5] = test system: rats; test: as above; type: in vivo; details: for TOX, number of animals exhibiting toxic effects / total number of animals tested: rat p.o., 30 mg/kg
Source text: as §4, §5

[6] = test system: MES-induced seizure spread; test: Maximal Electroshock Seizure (MES) test, rats p.o.; type: in vivo, rat; details: for MES, number of animals protected / total number of animals tested: rat p.o., 30 mg/kg
Source text: as §2
(§6) The MES test is a model for generalized tonic-clonic seizures and is used to identify compounds which prevent seizure spread. The behavioral and electrographic seizures generated in this model are consistent with the human disorder. In the MES test, an electrical stimulus of 0.2 s in duration (50 mA in mice and 150 mA in rat at 60Hz) was delivered via corneal electrodes primed with an electrolyte solution containing an anesthetic agent. Mice were tested at 30 minutes and 4 hours following doses of 30, 100 and 300 mg/kg of test compound. Rats were tested at time intervals between 0.25 and 4 hours following a standard oral dose of 30 mg/kg. Abolition of the hindlimb tonic extensor component indicates the test compound's ability to inhibit MES-induced seizure spread.
as §3

[7] = test system: MES-induced seizure spread; test: Maximal Electroshock Seizure (MES) test, mice oral; type: in vivo; details: Mus musculus, oral administration
Description: as §6
Toxicity across time doe not occur until dosages of 300mg/kg. […] Quantitative results obtained for fluoro felbamate 12 in mice indicated a MES ED50 of approximately 20 mg/kg with a safety ratio of at least five (see Table 3). Results obtained for oral administration of fluoro felbamate 12 to rats indicated a MES ED50 of about 3 mg/kg with no toxicity at doses up to 500 mg/kg.

In the case of NC(=O)OCC(F)(COC(N)=O)c1ccccc1 [fluoro felbamate, 2-Fluoro-2-phenyl-1,3-propanediol dicarbamate], the “TOX, number of animals exhibiting toxic effects / total number of animals tested” value ([1]; 3 mg/kg, 0.5h) is reported as 0/4, the “TOX, number of animals exhibiting toxic effects / total number of animals tested” value ([1]; 3 mg/kg, 4.0h) is reported as 0/4 and the “TOX, number of animals exhibiting toxic effects / total number of animals tested” value ([1]; 10 mg/kg, 0.5h) is reported as 0/4. For the same compound, the “TOX, number of animals exhibiting toxic effects / total number of animals tested” value ([1]; 10 mg/kg, 4.0h) was 0/4, the “TOX, number of animals exhibiting toxic effects / total number of animals tested” value ([1]; 30 mg/kg, 0.5h) was 1/4 and the “TOX, number of animals exhibiting toxic effects / total number of animals tested” value ([1]; 30 mg/kg, 4.0h) was 0/2. For the same compound, the “TOX, number of animals exhibiting toxic effects / total number of animals tested” value ([1]; 100 mg/kg, 0.5h) was 4/8, the “TOX, number of animals exhibiting toxic effects / total number of animals tested” value ([1]; 100 mg/kg, 4.0h) was 0/4 and the “TOX, number of animals exhibiting toxic effects / total number of animals tested” value ([1]; 300 mg/kg, 0.5h) was 4/4. The “TOX, number of animals exhibiting toxic effects / total number of animals tested” value ([1]; 300 mg/kg, 4.0h) was 2/2, the safety ratio ([1]; mice, i.p., toxicity relative to MES ED50) was “at least five” and the ED50 [2] was 115 mg/kg. The ED50 ([3]; Mus musculus, ip, read-out: MES ED50, mouse, I.P.) was ~20 mg/kg, the “MES, number of animals protected / total number of animals tested” value ([3]; 3 mg/kg, 0.5h) was 0/4 and the “MES, number of animals protected / total number of animals tested” value ([3]; 3 mg/kg, 4.0h) was 0/1. For the same compound, the “MES, number of animals protected / total number of animals tested” value ([3]; 10 mg/kg, 0.5h) was 0/4, the “MES, number of animals protected / total number of animals tested” value ([3]; 10 mg/kg, 4.0h) was 1/4 and the “MES, number of animals protected / total number of animals tested” value ([3]; 30 mg/kg, 0.5h) was 1/1. For the same compound, the “MES, number of animals protected / total number of animals tested” value ([3]; 30 mg/kg, 4.0h) was 1/1, the “MES, number of animals protected / total number of animals tested” value ([3]; 100 mg/kg, 0.5h) was 3/3 and the “MES, number of animals protected / total number of animals tested” value ([3]; 100 mg/kg, 4.0h) was 3/3. For the same compound, the “MES, number of animals protected / total number of animals tested” value ([3]; 300 mg/kg, 0.5h) was 1/1, the “MES, number of animals protected / total number of animals tested” value ([3]; 300 mg/kg, 4.0h) was 1/1 and the “MES ED50” value ([3]; mouse, I.P.) was 19.96 mg/kg. The ED50 [4] was > 500 mg/kg, the “TOX, number of animals exhibiting toxic effects / total number of animals tested” value ([5]; 0.25h) was 0/4 and the “TOX, number of animals exhibiting toxic effects / total number of animals tested” value ([5]; 0.5h) was 0/4. For the same compound, the “TOX, number of animals exhibiting toxic effects / total number of animals tested” value ([5]; 1.0h) was 0/4, the “TOX, number of animals exhibiting toxic effects / total number of animals tested” value ([5]; 2.0h) was 0/4 and the “TOX, number of animals exhibiting toxic effects / total number of animals tested” value ([5]; 4.0h) was 1/4. The “no toxicity at doses up to” value ([5]; rats, oral administration) was “up to 500 mg/kg”, the ED50 ([6]; Rattus norvegicus, po, read-out: MES ED50, rat, p.o.) was ~3 mg/kg and the “MES, number of animals protected / total number of animals tested” value ([6]; 0.25h) was 2/4. For the same compound, the “MES, number of animals protected / total number of animals tested” value ([6]; 0.5h) was 4/4, the “MES, number of animals protected / total number of animals tested” value ([6]; 1.0h) was 4/4 and the “MES, number of animals protected / total number of animals tested” value ([6]; 2.0h) was 4/4. The “MES, number of animals protected / total number of animals tested” value ([6]; 4.0h) was 4/4 and the ED50 [7] was ~27 mg/kg.
